A compilation of properties of binary mixtures (doi:10.1016/j.molliq.2022.121176)

Experiment: xn = mol fraction of the nth substance listed
Conditions: 298 K, 101.3 kPa

For CCCCCC[n+]1ccn(C)c1.[I-] + II, the electrical conductivity (x1 = 1) was 0.0186 S/m.

II + CCCCCC[n+]1ccn(C)c1.[I-] gave an electrical conductivity (x2 = 0.2) of 3.89 S/m, an electrical conductivity (x2 = 0.25) of 2.93 S/m and an electrical conductivity (x2 = 0.333) of 1.96 S/m. The electrical conductivity (x2 = 0.5) was 0.429 S/m.

In the case of II + CCCCCCCCCCCC[n+]1ccn(C)c1.[I-], the electrical conductivity (x2 = 0.25) is reported as 1.39 S/m.

With II + CCCC[n+]1ccn(C)c1.[I-] the electrical conductivity (x2 = 0.2) was 5.13 S/m, the electrical conductivity (x2 = 0.25) was 4.31 S/m and the electrical conductivity (x2 = 0.5) was 0.735 S/m.

C=CCn1cc[n+](C)c1.[I-] + II gave an electrical conductivity (x1 = 0.2) of 4.07 S/m and an electrical conductivity (x1 = 0.333) of 3.82 S/m.

Work on CCCC[n+]1ccn(C)c1.[I-] + II yielded an electrical conductivity (x1 = 1) of 0.035 S/m.

CC[n+]1ccn(C)c1.[I-] + II gave an electrical conductivity (x1 = 0.2) of 7.17 S/m, an electrical conductivity (x1 = 0.25) of 6.5 S/m and a viscosity (x1 = 0.25) of 18.8 mPa·s. The electrical conductivity (x1 = 0.333) was 5.08 S/m.
